Measurements as given in ChEMBL document CHEMBL4308889, “Resorcinol alkyl glucosides as potent tyrosinase inhibitors” (Bioorg Med Chem Lett, 2019).

What follows are compounds tested against T1, Tyrosinase (Agaricus bisporus, UniProt O42713) (assay: Inhibition of mushroom tyrosinase using TBC as substrate by spectrophotometric method).
T1 sequence (O42713 whole entry): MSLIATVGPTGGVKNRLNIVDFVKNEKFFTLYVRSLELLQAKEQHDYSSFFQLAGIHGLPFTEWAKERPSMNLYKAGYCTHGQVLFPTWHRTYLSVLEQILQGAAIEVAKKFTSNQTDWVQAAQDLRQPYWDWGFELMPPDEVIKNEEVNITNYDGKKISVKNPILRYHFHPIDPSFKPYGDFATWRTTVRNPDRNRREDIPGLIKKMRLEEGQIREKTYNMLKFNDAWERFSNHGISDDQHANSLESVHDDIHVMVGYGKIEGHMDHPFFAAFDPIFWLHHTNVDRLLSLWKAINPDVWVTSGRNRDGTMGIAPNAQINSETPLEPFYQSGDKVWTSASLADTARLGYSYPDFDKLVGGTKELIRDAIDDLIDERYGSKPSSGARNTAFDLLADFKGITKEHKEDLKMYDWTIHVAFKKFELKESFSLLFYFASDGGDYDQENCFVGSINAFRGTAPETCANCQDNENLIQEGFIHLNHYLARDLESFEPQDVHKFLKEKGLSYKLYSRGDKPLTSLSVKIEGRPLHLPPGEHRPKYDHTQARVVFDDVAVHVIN

IC50	Structure (SMILES)
390 nM	OC[C@H]1O[C@@H](OCCCCCCCCCCCCCCc2ccc(O)cc2O)[C@H](O)[C@@H](O)[C@@H]1O
410 nM	OC[C@H]1O[C@@H](OCCCCCCCCCCc2ccc(O)cc2O)[C@H](O)[C@@H](O)[C@@H]1O
1360 nM	OC[C@H]1O[C@@H](OCCCCc2ccc(O)cc2O)[C@H](O)[C@@H](O)[C@@H]1O
3620 nM	OC[C@H]1O[C@@H](OCCCc2ccc(O)cc2O)[C@H](O)[C@@H](O)[C@@H]1O
610 nM	CCCCCCc1ccc(O)cc1O [HEXYLRESORCINOL]

Continued, compound first:

Structure (SMILES)	IC50
OC[C@H]1O[C@@H](OCCc2ccc(O)cc2O)[C@H](O)[C@@H](O)[C@@H]1O	35900 nM
OC[C@H]1O[C@@H](OCCCCCCc2ccc(O)cc2O)[C@H](O)[C@@H](O)[C@@H]1O	630 nM

These compounds were tested against T2, Tyrosinase (Homo sapiens, UniProt P14679) (assay: Inhibition of tyrosinase (unknown origin) using L-DOPA as substrate preincubated with substrate for 5 mins followed by enzyme addition and measured immediately by spectrophotometric method).
T2 sequence (P14679 whole entry): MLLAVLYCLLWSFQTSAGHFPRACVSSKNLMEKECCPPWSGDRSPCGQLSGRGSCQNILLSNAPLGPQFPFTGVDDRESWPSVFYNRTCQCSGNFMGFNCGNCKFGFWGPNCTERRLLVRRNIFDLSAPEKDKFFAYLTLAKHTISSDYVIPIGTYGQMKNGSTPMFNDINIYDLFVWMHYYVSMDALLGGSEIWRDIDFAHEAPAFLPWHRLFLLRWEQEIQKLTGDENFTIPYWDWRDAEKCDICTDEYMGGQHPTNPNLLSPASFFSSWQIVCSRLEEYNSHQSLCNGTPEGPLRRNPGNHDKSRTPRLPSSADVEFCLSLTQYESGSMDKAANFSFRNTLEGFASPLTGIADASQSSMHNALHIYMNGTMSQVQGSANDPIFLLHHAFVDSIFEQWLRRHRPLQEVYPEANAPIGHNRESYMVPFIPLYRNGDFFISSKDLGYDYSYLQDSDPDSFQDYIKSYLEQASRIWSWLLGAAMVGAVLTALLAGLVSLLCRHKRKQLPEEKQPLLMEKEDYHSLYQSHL

IC50	Structure (SMILES)
417000 nM	OC[C@H]1O[C@@H](Oc2ccc(O)cc2O)[C@H](O)[C@@H](O)[C@@H]1O
